From PMC9453066, “Targeted control of pneumolysin production by a mobile genetic element in Streptococcus pneumoniae” (Microbial Genomics, 2022) come the findings set out here.

The experiment concerns ZomB. As to conditions: saturating ssDNA (poly(dT)); 1 mM MgCl2, 50 mM NaCl, 2 mM DTT, 20 mM Tris-Cl pH 8.0, 25 °C; 50 nM ZomB.

Turning to `Nc1ncnc2c1ncn2[C@@H]1O[C@H](COP(=O)(O)OP(=O)(O)OP(=O)(O)O)[C@@H](O)[C@H]1O` [ATP], the Km (usually the substrate concentration at which the rate is half of its maximum) was 90 µM.
